Measurements as given in PubChem BioAssay AID256 (DTP/NCI, 2004).
Values joined by “and” are separate entries in the source; they are usually repeats but may differ in a detail not shown here. Equal entries are not always repeated. Inconclusive results and toxic doses are left out.

System: CD2F1 mice, L1210 leukemia ip, survival T/C
Assay: NCI In Vivo Anticancer Drug Screen. Data for tumor model L1210 Leukemia (intraperitoneal) in CD2F1 (CDF1) mice
Conditions: higher = longer survival
In short: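 Mice carrying a transplanted tumor received test compound or vehicle alone. The value is the measurement in the treated group divided by that in the vehicle-treated control group.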

[1] = endpoint: mean survival time, dose: 50.0 mg/kg/injection, schedule: Q01DX009 (ip), vehicle: saline with Tween-80
[2] = endpoint: mean survival time, dose: 100.0 mg/kg/injection, schedule: Q01DX009 (ip), vehicle: saline with Tween-80
[3] = endpoint: mean survival time, dose: 200.0 mg/kg/injection, schedule: Q01DX009 (ip), vehicle: saline with Tween-80
[4] = endpoint: mean survival time, dose: 100.0 mg/kg/injection, schedule: Q04DX002 (ip), vehicle: saline with Tween-80
[5] = endpoint: mean survival time, dose: 200.0 mg/kg/injection, schedule: Q04DX002 (ip), vehicle: saline with Tween-80
[6] = endpoint: mean survival time, dose: 400.0 mg/kg/injection, schedule: Q04DX002 (ip), vehicle: saline with Tween-80

Q: Which results are given for `Cc1ccc(S(=O)(=O)N2CCn3ncc(C#N)c32)cc1`?
A: T/C (endpoint: mean survival time, dose: 12.5 mg/kg/injection, schedule: Q01DX009 (ip), vehicle: Klucel (hydroxypropylcellulose) (HPC)): 98 % of control; T/C (endpoint: mean survival time, dose: 25.0 mg/kg/injection, schedule: Q01DX009 (ip), vehicle: Klucel (hydroxypropylcellulose) (HPC)): 95 % of control; T/C (endpoint: mean survival time, dose: 50.0 mg/kg/injection, schedule: Q01DX009 (ip), vehicle: Klucel (hydroxypropylcellulose) (HPC)): 97 % of control; T/C (endpoint: mean survival time, dose: 100.0 mg/kg/injection, schedule: Q01DX009 (ip), vehicle: Klucel (hydroxypropylcellulose) (HPC)): 87 % of control; T/C (endpoint: mean survival time, dose: 200.0 mg/kg/injection, schedule: Q01DX009 (ip), vehicle: Klucel (hydroxypropylcellulose) (HPC)): 89 % of control; T/C (endpoint: mean survival time, dose: 400.0 mg/kg/injection, schedule: Q01DX009 (ip), vehicle: Klucel (hydroxypropylcellulose) (HPC)): 95 % of control

Q: Which results are given for `N[C@@H](C[C@H]1CCC(=O)[C@@H]2O[C@H]12)C(=O)O`?
A: T/C (endpoint: mean survival time, dose: 100.0 mg/kg/injection, schedule: Q04DX002 (ip), vehicle: saline): 117 % of control and 107 % of control; T/C (endpoint: mean survival time, dose: 400.0 mg/kg/injection, schedule: Q04DX002 (ip), vehicle: saline): 167 % of control; T/C (endpoint: median survival time, dose: 50.0 mg/kg/injection, schedule: Q01DX005 (ip), vehicle: saline): 113 % of control and 110 % of control; T/C (endpoint: median survival time, dose: 100.0 mg/kg/injection, schedule: Q01DX005 (ip), vehicle: saline): 122 % of control and 124 % of control; T/C (endpoint: median survival time, dose: 144.0 mg/kg/injection, schedule: Q01DX005 (ip), vehicle: saline): 110 % of control; T/C (endpoint: median survival time, dose: 172.8 mg/kg/injection, schedule: Q01DX005 (ip), vehicle: saline): 119 % of control; T/C (endpoint: median survival time, dose: 240.0 mg/kg/injection, schedule: Q01DX005 (ip), vehicle: saline): 114 % of control; T/C (endpoint: median survival time, dose: 288.0 mg/kg/injection, schedule: Q01DX005 (ip), vehicle: saline): 121 % of control; T/C (endpoint: median survival time, dose: 800.0 mg/kg/injection, schedule: Q01DX005 (ip), vehicle: saline): 155 % of control

Q: How did the T/C (endpoint: mean survival time, dose: 25.0 mg/kg/injection, schedule: Q04DX003 (ip), vehicle: saline with Tween-80) turn out when `ClC1=NC(Cl)C(Cl)=N/C1=N\c1ncn[nH]1` (configuration not stated) was run?
A: The T/C was 96 % of control.

Q: And the T/C (endpoint: mean survival time, dose: 50.0 mg/kg/injection, schedule: Q04DX003 (ip), vehicle: saline with Tween-80)?
A: The T/C was 95 % of control.

Q: And the T/C (endpoint: mean survival time, dose: 100.0 mg/kg/injection, schedule: Q04DX003 (ip), vehicle: saline sonified)?
A: The T/C was 93 % of control.

Q: Which T/C (endpoint: mean survival time, dose: 25.0 mg/kg/injection, schedule: Q01DX009 (ip), vehicle: saline with Tween-80) does the source give for `O=C(NCCCl)Nc1cc(Cl)cc(Cl)c1` here?
A: The T/C was 97 % of control.

Q: And the T/C [1]?
A: Its T/C is 100 % of control.

Q: What about the T/C [2] of the same compound?
A: The T/C was 88 % of control and 96 % of control.

Q: With `CCOC(=O)C(=CNc1cc(C)ccn1)C(=O)OCC` as the compound, how does the T/C [2] read?
A: The T/C was 109 % of control.

Q: What about the T/C [3] of the same compound?
A: Its T/C is 98 % of control.

Q: And the T/C (endpoint: mean survival time, dose: 400.0 mg/kg/injection, schedule: Q01DX009 (ip), vehicle: saline with Tween-80)?
A: The T/C was 94 % of control.

Q: With `CCOC(=O)C(c1ccccc1)P(=O)(OCC)OCC` (configuration not stated) as the compound, how does the T/C [4] read?
A: The T/C was 111 % of control.

Q: And the T/C [5]?
A: The T/C was 100 % of control.

Q: What about the T/C [6] of the same compound?
A: The T/C was 100 % of control.

Q: Which results are given for `CC(C)OC(=O)COc1ccc(F)cc1F`?
A: T/C [4]: 92 % of control; T/C [5]: 95 % of control; T/C [6]: 89 % of control

Q: For `O=C1CSC2(CCN(Cc3ccccc3)CC2)O1`, which T/C (endpoint: mean survival time, dose: 100.0 mg/kg/injection, schedule: Q01DX001 (ip), vehicle: saline) is on record?
A: The T/C was 98 % of control.

Q: What about the T/C (endpoint: mean survival time, dose: 200.0 mg/kg/injection, schedule: Q01DX001 (ip), vehicle: saline) of the same compound?
A: Its T/C is 102 % of control.

Q: And the T/C (endpoint: mean survival time, dose: 400.0 mg/kg/injection, schedule: Q01DX001 (ip), vehicle: saline)?
A: Its T/C is 95 % of control.

Q: With `C=CCCCCCCCCC(=O)NCC1CCCCO1` (configuration not stated) as the compound, how does the T/C (endpoint: mean survival time, dose: 100.0 mg/kg/injection, schedule: Q04DX003 (ip), vehicle: saline with Tween-80) read?
A: Its T/C is 94 % of control.

Q: What about the T/C (endpoint: mean survival time, dose: 200.0 mg/kg/injection, schedule: Q04DX003 (ip), vehicle: saline with Tween-80) of the same compound?
A: The T/C was 98 % of control.

Q: And the T/C (endpoint: mean survival time, dose: 400.0 mg/kg/injection, schedule: Q04DX003 (ip), vehicle: saline with Tween-80)?
A: The T/C was 93 % of control.

Q: `O=C(NC(=S)N1CCCC1)c1ccccc1` was tested. Which T/C [1] did it give?
A: The T/C was 101 % of control.

Q: What about the T/C [2] of the same compound?
A: Its T/C is 103 % of control.

Q: What about the T/C [3] of the same compound?
A: Its T/C is 106 % of control.

Q: Which T/C (endpoint: mean survival time, dose: 3.12 mg/kg/injection, schedule: Q01DX009 (ip), vehicle: saline) does the source give for `CC(=O)NC(Cc1ccc(N(CCCl)CCCl)cc1)C(=O)O` (configuration not stated) here?
A: The T/C was 97 % of control.

Q: And the T/C (endpoint: mean survival time, dose: 6.25 mg/kg/injection, schedule: Q01DX009 (ip), vehicle: saline)?
A: The T/C was 105 % of control.

Q: And the T/C (endpoint: mean survival time, dose: 12.5 mg/kg/injection, schedule: Q01DX009 (ip), vehicle: saline)?
A: Its T/C is 118 % of control.
